# Measured values published in article PMC9365693 (Nature, 2022).
# Ends that are not written are not given here.
# Legend:
# Staphylococcus simulans [1] = test: DiSC membrane depolarization (ion leakage) assay, S. simulans; type: cell-based; conditions: DiSC-2 probe, Gram-positive bacteria (Fig. 4h and Extended Data Fig. 10b,c), 20 °C, pH 7.2, 2 min before and 6 min after antibiotic; triplicates
# Method: (§1) The bacterial cultures were grown overnight at 30 °C in TSB media for S. simulans and at 37 °C in LB medium for Bacillus subtilis. Secondary cultures were grown for 3 h until OD600 = 0.5 was reached. The bacterial cells were then centrifuged at 1,500g for 10 min at 4 °C and washed twice with 10 ml of buffer (10 mM Tris, 100 mM NaCl, 1 mM MgCl2 and 0.5% glucose, pH 7.2). The bacterial cells were resuspended to an OD600 = 10 in the buffer and used for the experiment. […] For the assay, 1 μl of the bacterial suspension was added to 1 ml of buffer. For the ion leakage assays, 1 μl of the DiSC-2 probe from a 1 mM stock was added to the cuvette and the fluorescence was measured between a wavelength of 650 nm and 670 nm (bandwidth of […]) for 2 min before the addition of the antibiotic and 6 min after. For the Sytox green leakage assays, 1 μl of the Sytox green probe from a 0.25 mM stock was added to the cuvette and the fluorescence was measured between a wavelength of 500 nm and 520 nm (bandwidth of […]) for 2 min before the addition of the antibiotic and 6 min after. All experiments were performed in triplicates.
# S. simulans = test: MIC, S. simulans (given with permeabilization assay concentrations); type: cell-based
# B. subtilis = test: MIC, B. subtilis (given with permeabilization assay concentrations); type: cell-based, Bacillus subtilis
# Method: as §1
# Staphylococcus simulans [2] = test: Sytox green membrane damage assay, S. simulans; type: cell-based; conditions: Sytox green, Gram-positive bacteria, 20 °C, pH 7.2, 2 min before and 6 min after antibiotic; triplicates
# Method: as §1
# [3] = species not clearly assigned (S. simulans by word order)
Molecule,decrease in membrane potential / depolarization (in words) (Staphylococcus simulans [1]),concentration stated as 1× MIC (S. simulans; [3]) [µM],concentration stated as 10× MIC (B. subtilis) [µM],"membrane damage, Sytox green (in words) (Staphylococcus simulans [2])",concentration stated as 1× MIC (S. simulans; S. simulans) [µM],concentration stated as 10× MIC (S. simulans; [3]) [µM]
nisin,Membrane depolarization was also observed,0.01,,,,
"plectasin: lipid II binder plectasin (GFGCNGPWDEDDMQCHNHCKSIKGYKGGYCAKGGFVCKCY; ends and bridges not checked; cysteine pairing not given here; UniProt Q53I06 56-95, looked up) [reference compound]",,,0.2,Such effects were again absent,0.5,
CN[C@H](CC(C)C)C(=O)N[C@H]1C(=O)N[C@@H](CC(N)=O)C(=O)N[C@H]2C(=O)N[C@H]3C(=O)N[C@H](C(=O)N[C@H](C(=O)O)c4cc(O)cc(O)c4-c4cc3ccc4O)[C@H](O)c3ccc(c(Cl)c3)Oc3cc2cc(c3O[C@@H]2O[C@H](CO)[C@@H](O)[C@H](O)[C@H]2O[C@H]2C[C@](C)(N)[C@H](O)[C@H](C)O2)Oc2ccc(cc2Cl)[C@H]1O [vancomycin],,,,Such effects were again absent,,10
